This passage reports IC50 results from PubChem BioAssay AID623988 (Vanderbilt High Throughput Screening Facility, 2012).

The assay concerns the target Voltage-gated inwardly rectifying potassium channel KCNH2 (Homo sapiens) (UniProt Q12809). The experiment in a line: KCNH2 potassium channel blockade – cell-based, thallium flux, concentration-response, selectivity assay for GIRK activator project, dose response (AID 623988). The conditions noted are these: hERG-expressing HEK293 cells, thallium flux fluorescence. (In general: hERG is a cardiac potassium channel; its block is linked to QT prolongation.)

Sequence of Voltage-gated inwardly rectifying potassium channel KCNH2 (Homo sapiens) (Q12809 whole entry, looked up): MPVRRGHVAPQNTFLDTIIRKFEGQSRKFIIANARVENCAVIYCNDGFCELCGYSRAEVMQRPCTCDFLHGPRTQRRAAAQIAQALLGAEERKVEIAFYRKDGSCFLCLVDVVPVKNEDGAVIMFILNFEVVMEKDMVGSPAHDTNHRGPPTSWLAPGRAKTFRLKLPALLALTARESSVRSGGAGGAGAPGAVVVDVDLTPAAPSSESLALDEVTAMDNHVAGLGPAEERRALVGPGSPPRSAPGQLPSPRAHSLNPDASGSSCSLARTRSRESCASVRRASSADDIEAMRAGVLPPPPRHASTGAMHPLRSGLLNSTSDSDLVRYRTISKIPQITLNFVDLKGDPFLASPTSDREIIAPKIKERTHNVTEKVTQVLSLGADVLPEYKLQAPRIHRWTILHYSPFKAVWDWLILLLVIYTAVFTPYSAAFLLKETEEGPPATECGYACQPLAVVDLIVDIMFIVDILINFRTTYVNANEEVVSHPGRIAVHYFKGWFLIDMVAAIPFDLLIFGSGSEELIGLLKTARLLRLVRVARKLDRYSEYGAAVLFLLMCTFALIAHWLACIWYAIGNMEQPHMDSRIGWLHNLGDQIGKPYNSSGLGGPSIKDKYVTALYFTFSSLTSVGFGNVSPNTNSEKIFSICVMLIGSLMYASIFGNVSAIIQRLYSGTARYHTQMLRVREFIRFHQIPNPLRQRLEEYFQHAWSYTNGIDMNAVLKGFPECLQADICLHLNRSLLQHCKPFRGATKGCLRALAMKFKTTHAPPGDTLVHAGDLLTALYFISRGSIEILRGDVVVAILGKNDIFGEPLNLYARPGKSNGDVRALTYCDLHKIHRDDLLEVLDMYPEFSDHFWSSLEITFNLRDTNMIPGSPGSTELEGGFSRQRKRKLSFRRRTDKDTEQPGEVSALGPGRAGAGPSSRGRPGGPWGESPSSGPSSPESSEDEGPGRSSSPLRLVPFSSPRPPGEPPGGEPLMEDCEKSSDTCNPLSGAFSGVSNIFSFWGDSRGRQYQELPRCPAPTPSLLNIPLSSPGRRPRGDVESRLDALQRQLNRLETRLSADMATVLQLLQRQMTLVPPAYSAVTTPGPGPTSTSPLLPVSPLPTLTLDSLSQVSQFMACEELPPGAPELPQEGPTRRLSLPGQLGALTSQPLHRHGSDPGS

The term IC50 denotes the concentration needed to halve the response being measured. As to `Cc1cc(NC(=O)Nc2ccc(F)c(F)c2)n(-c2ccccc2)n1`, the concentration for half-maximal inhibition (IC50) was 10.8 µM.
